Results on 28 compounds are retold here after patent US12336981B2, “Compounds and compositions for the inhibition of NAMPT” (Valo Health, Inc., priority 2010, dated 2025).

For one assay, the target named is T1, NAMPT (Homo sapiens, UniProt P43490).
T1 construct: His tag; host or cells: E. coli
Briefly: Biochemical inhibition assay: NAMPT enzymatic reaction, NMN quantified by mass spectrometry. As to conditions: read-out: Biochem IC50. In a few lines:
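Inhibition of E. coli-expressed His-tagged human NAMPT, measured as NMN formation by mass spectrometry after a 30 min room-temperature reaction containing 1 μM NAM, 100 μM PRPP and 2.5 mM ATP.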

The next assay concerns A2780 cells. Briefly: In-vitro cell proliferation assay (SRB), A2780 cells. It counts as cell-based. As to conditions: Homo sapiens, A2780, 72 h, A2780 cells, 72 hours, read-out: A2780 IC50. In a few lines:
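SRB read-out: 6% TCA fix 1 h at 4° C., stain, Tris solubilize, A570. Media-only background subtracted; % inhibition from two compound concentrations.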

Read-outs that look alike come from different tables or passages of the source.

T1 sequence (P43490 whole entry): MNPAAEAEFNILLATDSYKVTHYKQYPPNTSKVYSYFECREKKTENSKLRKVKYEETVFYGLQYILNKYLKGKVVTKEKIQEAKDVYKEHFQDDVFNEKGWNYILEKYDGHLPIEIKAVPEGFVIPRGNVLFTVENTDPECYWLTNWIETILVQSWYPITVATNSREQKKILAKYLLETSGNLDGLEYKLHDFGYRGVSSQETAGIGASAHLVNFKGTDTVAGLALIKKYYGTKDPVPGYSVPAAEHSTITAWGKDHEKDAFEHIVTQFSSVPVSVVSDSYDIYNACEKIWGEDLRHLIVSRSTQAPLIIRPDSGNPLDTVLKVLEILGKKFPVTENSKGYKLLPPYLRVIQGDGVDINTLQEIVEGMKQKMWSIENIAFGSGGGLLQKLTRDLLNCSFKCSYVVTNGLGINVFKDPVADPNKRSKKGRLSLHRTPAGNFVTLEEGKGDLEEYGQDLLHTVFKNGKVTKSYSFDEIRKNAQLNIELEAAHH

Broadly, the IC50 is the concentration needed to halve the response being measured. For the compound `CCCCOc1ccc(S(=O)(=O)c2ccc(CNC(=O)c3cc4ccncc4s3)cc2)cc1`, the half-maximal inhibitory concentration (IC50) was 3.6 nM at NAMPT (NAMPT enzymatic reaction) and 10.3 nM with A2780 cells (SRB).

For `CC(C)COc1cc(F)cc(S(=O)(=O)c2ccc(CNC(=O)c3cc4ccncc4o3)cc2)c1` [N-[(4-{[3-fluoro-5-(2-methylpropoxy)benzene]sulfonyl}phenyl)methyl]furo[2,3-c]pyridine-2-carboxamide], the half-inhibitory concentration (IC50) on NAMPT (NAMPT enzymatic assay) is 10.3 nM; in the assay with A2780 cells (SRB), 12.9 nM.

With `CC(C)Oc1ccc(Cl)cc1S(=O)(=O)c1ccc(CNC(=O)c2cc3ccncc3o2)cc1`, the IC50 was 9.1 nM at NAMPT (NAMPT enzymatic assay) and 12.1 nM with A2780 cells (SRB).

Regarding `O=C(NCc1ccc(S(=O)(=O)c2cc(F)cc(Cl)c2)cc1)c1cc2ccncc2o1`, the IC50 at NAMPT (NAMPT enzymatic reaction) amounted to 17.8 nM; in the assay with A2780 cells (SRB) it was 3.1 nM.

Take `O=C(NCc1ccc(S(=O)(=O)c2cccc(F)c2)cc1)c1cc2cnccc2[nH]1` [N-({4-[(3-fluorobenzene)sulfonyl]phenyl}methyl)-1H-pyrrolo[3,2-c]pyridine-2-carboxamide]: the figures for the concentration for half-maximal inhibition (IC50) on NAMPT (NAMPT enzymatic reaction) and with A2780 cells (SRB assay) were 9 nM and 10 nM, respectively.

In the case of `Cn1ncc2cc(S(=O)(=O)c3ccc(CNC(=O)c4cc5ccncc5s4)cc3)ccc21` [N-{[4-(1-methyl-1H-indazole-5-sulfonyl)phenyl]methyl}thieno[2,3-c]pyridine-2-carboxamide], the concentration for half-maximal inhibition (IC50) at NAMPT (NAMPT enzymatic assay) is 1.5 nM; with A2780 cells (SRB) it was 1.6 nM.

`Cc1cc(Cl)ccc1S(=O)(=O)c1ccc(CNC(=O)c2cc3ccncc3o2)cc1` [N-({4-[(4-chloro-2-methylbenzene)sulfonyl]phenyl}methyl)furo[2,3-c]pyridine-2-carboxamide]: the IC50 was 24.9 nM on NAMPT (NAMPT enzymatic reaction) and 64.7 nM in the assay with A2780 cells (SRB).

With `O=C(NCc1ccc(S(=O)(=O)c2cccc3c2Oc2ccccc2S3)cc1)c1cc2ccncc2o1` [N-{[4-(phenoxathiine-4-sulfonyl)phenyl]methyl}furo[2,3-c]pyridine-2-carboxamide], the values for the IC50 at NAMPT (NAMPT enzymatic assay) and in the assay with A2780 cells (SRB) were 5.6 nM and 13.1 nM, respectively.

For the compound `O=C(NCc1ccc(S(=O)(=O)N2CCCCC2)cc1)c1ccn2ccnc2c1` [N-{[4-(piperidine-1-sulfonyl)phenyl]methyl}imidazo[1,2-a]pyridine-7-carboxamide], the concentration for half-maximal inhibition (IC50) was above 100 nM at NAMPT (NAMPT enzymatic reaction) and above 500 nM in the assay with A2780 cells (SRB assay).

`CCCOc1ccc(S(=O)(=O)c2ccc(CNC(=O)c3cc4ccncc4o3)cc2)cc1Cl`: the IC50 worked out at 4.9 nM on NAMPT (NAMPT enzymatic reaction) and 11.9 nM in the assay with A2780 cells (SRB).

Turning to `O=C(NCc1ccc(S(=O)(=O)c2cccc(C(F)(F)F)c2Cl)cc1)c1cnc2[nH]ncc2c1` [N-[(4-{[2-chloro-3-(trifluoromethyl)benzene]sulfonyl}phenyl)methyl]-1H-pyrazolo[3,4-b]pyridine-5-carboxamide], the results for the IC50 on NAMPT (NAMPT enzymatic assay) and with A2780 cells (SRB) were 36.5 nM and 38.4 nM, respectively.

As for `Cc1cc(Cl)ccc1S(=O)(=O)c1ccc(CNC(=O)c2cnc3[nH]ncc3c2)cc1` [N-({4-[(4-chloro-2-methylbenzene)sulfonyl]phenyl}methyl)-1H-pyrazolo[3,4-b]pyridine-5-carboxamide], the figures for the IC50 on NAMPT (NAMPT enzymatic reaction) and with A2780 cells (SRB) were 77.5 nM and 58.7 nM, respectively.

Regarding `CCCCOc1ccc(S(=O)(=O)c2ccc(CNC(=O)c3cnc4nccn4c3)cc2)cc1F`, the concentration for half-maximal inhibition (IC50) on NAMPT (NAMPT enzymatic reaction) stood at 1.2 nM; in the assay on A2780 cells (SRB) it was 3.1 nM.

For `O=C(NCc1ccc(S(=O)(=O)c2ccccc2Oc2ccccc2)cc1)c1ccc2nccn2c1` [N-({4-[(2-phenoxybenzene)sulfonyl]phenyl}methyl)imidazo[1,2-a]pyridine-6-carboxamide], the 50% inhibitory concentration (IC50) on NAMPT (NAMPT enzymatic reaction) was 63.6 nM; with A2780 cells (SRB), 60.7 nM.

For `O=C(NCc1ccc(S(=O)(=O)c2cc(C(F)(F)F)ccn2)cc1)c1cnc2nccn2c1` [N-({4-[4-(trifluoromethyl)pyridine-2-sulfonyl]phenyl}methyl)imidazo[1,2-a]pyrimidine-6-carboxamide], the IC50 at NAMPT (NAMPT enzymatic assay) was determined as 8.7 nM; in the assay on A2780 cells (SRB), 13 nM.

For `O=C(NCc1ccc(S(=O)(=O)c2cnc3n2CCCCC3)cc1)c1cnc2[nH]ncc2c1` [N-[(4-{5H,6H,7H,8H,9H-imidazo[1,2-a]azepine-3-sulfonyl}phenyl)methyl]-1H-pyrazolo[3,4-b]pyridine-5-carboxamide], the IC50 on NAMPT (NAMPT enzymatic assay) is 31.6 nM; in the assay on A2780 cells (SRB) it was 12.3 nM.

Take `COc1ccc(S(=O)(=O)c2ccc(CNC(=O)c3cnc4[nH]ncc4c3)cc2)c(C)c1` [N-({4-[(4-methoxy-2-methylbenzene)sulfonyl]phenyl}methyl)-1H-pyrazolo[3,4-b]pyridine-5-carboxamide]: the half-maximal inhibitory concentration (IC50) at NAMPT (NAMPT enzymatic reaction) worked out at 29 nM; in the assay with A2780 cells (SRB) it was 55.5 nM.

As to `O=C(NCc1ccc(S(=O)(=O)c2cncc(N3CCCC3)c2)cc1)c1cc2ccncc2o1` [N-({4-[5-(pyrrolidin-1-yl)pyridine-3-sulfonyl]phenyl}methyl)furo[2,3-c]pyridine-2-carboxamide], the IC50 on NAMPT (NAMPT enzymatic assay) turned out to be 22.8 nM; with A2780 cells (SRB), 4.9 nM.

As to `O=C(NCc1ccc(S(=O)(=O)c2cc(C(F)(F)F)ccc2OCc2ccccc2)cc1)c1cnc2nccn2c1`, the 50% inhibitory concentration (IC50) on NAMPT (NAMPT enzymatic assay) is 33.2 nM; with A2780 cells (SRB), 100 to 1000 nM.

As to `O=C(NCc1ccc(S(=O)(=O)c2ccc(F)cc2C(F)(F)F)cc1)c1ccc2nccn2c1`, the IC50 was 4 nM on NAMPT (NAMPT enzymatic assay) and 15 nM in the assay with A2780 cells (SRB).

Turning to `CC(C)Oc1ccc(S(=O)(=O)c2ccc(CNC(=O)c3cnc4[nH]ncc4c3)cc2)cc1` [N-[(4-{[4-(propan-2-yloxy)benzene]sulfonyl}phenyl)methyl]-1H-pyrazolo[3,4-b]pyridine-5-carboxamide], the 50% inhibitory concentration (IC50) on NAMPT (NAMPT enzymatic assay) was 8 nM; with A2780 cells (SRB) it was 6.6 nM.

For the compound `COc1c(Cl)ccc(S(=O)(=O)c2ccc(CNC(=O)c3cnc4nccn4c3)cc2)c1Cl`, the IC50 on NAMPT (NAMPT enzymatic reaction) is 6.6 nM; in the assay on A2780 cells (SRB) it was 25.5 nM.

For `Cc1ccc(S(=O)(=O)c2ccc(CNC(=O)c3cc4ccncc4s3)cc2)cc1` [N-({4-[(4-methylbenzene)sulfonyl]phenyl}methyl)thieno[2,3-c]pyridine-2-carboxamide], the IC50 at NAMPT (NAMPT enzymatic reaction) and in the assay on A2780 cells (SRB assay) was 5 nM throughout.

In the case of `O=CNc1ccc(C(=O)NCc2ccc(S(=O)(=O)c3cc(F)cc(F)c3)cc2)cn1` [5-N-({4-[(3,5-difluorobenzene)sulfonyl]phenyl}methyl)pyridine-2,5-diamido], the IC50 on NAMPT (NAMPT enzymatic reaction) was 1000 to 10000 nM; with A2780 cells (SRB) it was 661 nM.

For `CCc1ccccc1S(=O)(=O)c1ccc(CNC(=O)c2cc3cnccc3[nH]2)cc1` [N-({4-[(2-ethylbenzene)sulfonyl]phenyl}methyl)-1H-pyrrolo[3,2-c]pyridine-2-carboxamide], the half-inhibitory concentration (IC50) at NAMPT (NAMPT enzymatic reaction) stood at 5 nM; with A2780 cells (SRB assay), 3 nM.

For `CCOc1ccc(S(=O)(=O)c2ccc(CNC(=O)c3cnc4nccn4c3)cc2)c(C)c1` [N-({4-[(4-ethoxy-2-methylbenzene)sulfonyl]phenyl}methyl)imidazo[1,2-a]pyrimidine-6-carboxamide], the IC50 was 11.7 nM at NAMPT (NAMPT enzymatic reaction) and 60.7 nM with A2780 cells (SRB).

Turning to `O=C(NCc1ccc(S(=O)(=O)c2cncc3ccccc23)cc1)c1ccc2nccn2c1` [N-{[4-(isoquinoline-4-sulfonyl)phenyl]methyl}imidazo[1,2-a]pyridine-6-carboxamide], the results for the concentration for half-maximal inhibition (IC50) on NAMPT (NAMPT enzymatic assay) and with A2780 cells (SRB) were 22.4 nM and 4.1 nM, respectively.

For `O=C(NCc1ccc(S(=O)(=O)c2cc(C(F)(F)F)ccn2)cc1)c1cc2ccncc2o1` [N-({4-[4-(trifluoromethyl)pyridine-2-sulfonyl]phenyl}methyl)furo[2,3-c]pyridine-2-carboxamide], the figures for the IC50 on NAMPT (NAMPT enzymatic assay) and in the assay on A2780 cells (SRB) were 13.9 nM and 6.1 nM, respectively.
